Data from patent US8048868B1, “Method of preventing preeclampsia” (Scott & White Healthcare, priority 2008, dated 2011).

What was measured:
[1] = test system: "preeclamptic (PDS)" rats; settings: RBG given when the disorder was established (Vu et al. 2006); cited from earlier work
[2] = test system: pregnant DOCA+saline (PDS) rats; experiment: Rat model of preeclampsia (pregnant DOCA+saline rats), RBG given daily from day 4 of pregnancy; type: in vivo, Sprague-Dawley rats; settings: RBG 15 μg/kg/min daily given to PDS rats (data not shown)
normal pregnant rats = experiment: Normal pregnant rats given RBG daily from day 4 of pregnancy (NPR); type: in vivo, Sprague-Dawley rats
Method: Female Sprague-Dawley rats (200-250 g) were obtained from Charles River Laboratories (Wilmington, Mass.) and housed in the animal facility. They were allowed free access to standard rat chow and tap water. Animal care was conducted in accordance with institutional guidelines. The rats were acclimatized for 1 week prior to being studied. The animals were mated with male Sprague-Dawley rats (Charles River Laboratories, Wilmington, Mass.) weighing 275-300 g. Pregnancy was confirmed by the presence of vaginal plugs or by examination of vaginal smears. The pregnant females were then isolated from the males. Four groups of animals were studied: normal pregnant (NP) rats given tap water ad libitum (n=10), pregnant DOCA+saline (PDS) animals (n=8) injected initially with 12.5 mg of DOCA in a depot form intraperitoneally followed by 6.5 mg on a weekly basis and whose drinking water was replaced with 0.9% saline; […] (NPR rats, n=5); and, pregnant DOCA+saline+RBG (PDSR) animals (n=8) given daily injections of RBG in a dose of 30 micrograms per kilogram body weight per day intraperitoneally beginning on day 4 of pregnancy in addition to treatment with DOCA+saline. RBG was obtained from ChromaDex (Santa Ana, Calif.) and dissolved in dimethyl sulfoxide (DMSO). Systolic blood pressure (BP) was measured by the tail-cuff method (IITC Inc., LifeScience Instruments, model 59). For each BP value reported, 3-4 readings were performed when the BP had stabilized and the mean of these values was calculated. The measurements were obtained at the following time points: prior to pregnancy (baseline), at 1-4 days, 4-7 days, 6-9 days, 8-11 days, 11-14 days, 13-16 days, 15-18 days and 18-21 days of pregnancy. At 18-21 days of pregnancy, 24-hr urine was collected in the absence of food (this was done to eliminate contamination of the urinary protein determination by any fallen food particles). Each animal was housed separately in a metabolic cage. The rats were sacrificed at 18-21 days of pregnancy and blood was drawn. The pups were counted and inspected for malformations. The 24-hr protein excretion was measured using the pyrogallol red method (Total protein Kit, Micro Pyrogallol Red Method, Sigma).
Creatinine was measured in the blood and urine on a Nova 16 Analyzer (Waltham, Mass.) and the creatinine clearance was calculated. Hematocrit was measured using a StatSpin MP Multipurpose Centrifuge (Norwood, Mass.). Statistics were performed using analysis of variance (ANOVA) and Tukey's post-hoc test.
Blood pressure results for four groups of experimental animals obtained at various time periods during gestation: NP=normal pregnant rats; PDS=pregnant animals given saline in their drinking water and injected weekly with DOCA; PDSR=rats in whom resibufogenin 30 μg/kg/day) was injected at the onset of pregnancy along with DOCA and the provision of saline as drinking water; NPR=normal pregnant animals injected daily with resibufogenin 30 μg/kg/day. See text for statistical analyses.

[3] = test system: pregnant DOCA+saline (PDS) rats; experiment: Rat model of preeclampsia (pregnant DOCA+saline rats), RBG given daily from day 4 of pregnancy; type: in vivo, Sprague-Dawley rats
Excerpt: In an attempt to reproduce this situation, a rat model was developed and employed in which pregnant animals are given weekly injections of the powerful mineralocorticoid desoxycorticosterone acetate (DOCA) and whose drinking water is replaced with saline Ianosi-Irimie M, Vu H V, Whitbred J M, et al. A rat model of preeclampsia. Clin Exp Hypertens 2005; 8:605-17. These animals develop characteristic findings of human preeclampsia including hypertension, proteinuria, excessive body weight gain and IUGR. In addition, associated with their experimental condition, they excrete increased amounts of the bufodienolide, marinobufagenin (MBG) Vu H V, Ianosi-Irimie M R, Pridjian C A, et al. Involvement of marinobufagenin in a rat model of human preeclampsia. Am J NephroI 2005; 25:520-8. MBG is a cardiotonic steroid which has vasoconstrictor, natriuretic and cardiac inotropic properties Schoner W. Endogenous cardiac glycosides, a new class of steroid hormones. Eur J Biochem 2002; 269:2440-8. Furthermore, the increased urinary excretion of this compound precedes the development of hypertension and proteinuria Vu H V, Ianosi-Irimie M R, Pridjian C A, et al. Involvement of marinobufagenin in a rat model of human preeclampsia. Am J NephroI 2005; 25:520-8. […] Therefore, the purpose of the study which is presented in this communication was to determine if intervention early in pregnancy would have more beneficial effects on IUGR than the administration of RBG at a time when the rodent disorder was already established.
Female Sprague-Dawley rats (200-250 g) were obtained from Charles River Laboratories (Wilmington, Mass.) and housed in the animal facility. They were allowed free access to standard rat chow and tap water. Animal care was conducted in accordance with institutional guidelines. The rats were acclimatized for 1 week prior to being studied. The animals were mated with male Sprague-Dawley rats (Charles River Laboratories, Wilmington, Mass.) weighing 275-300 g. Pregnancy was confirmed by the presence of vaginal plugs or by examination of vaginal smears. The pregnant females were then isolated from the males. Four groups of animals were studied: normal pregnant (NP) rats given tap water ad libitum (n=10), pregnant DOCA+saline (PDS) animals (n=8) injected initially with 12.5 mg of DOCA in a depot form intraperitoneally followed by 6.5 mg on a weekly basis and whose drinking water was replaced with 0.9% saline; normal pregnant rats given RBG by daily injection in a dose of 30 micrograms per kilogram body weight per day intraperitoneally beginning on day 4 of pregnancy (NPR rats, n=5); and, pregnant DOCA+saline+RBG (PDSR) animals (n=8) given daily injections of RBG in a dose of 30 micrograms per kilogram body weight per day intraperitoneally beginning on day 4 of pregnancy in addition to treatment with DOCA+saline. RBG was obtained from ChromaDex (Santa Ana, Calif.) and dissolved in dimethyl sulfoxide (DMSO). Systolic blood pressure (BP) was measured by the tail-cuff method (IITC Inc., LifeScience Instruments, model 59). For each BP value reported, 3-4 readings were performed when the BP had stabilized and the mean of these values was calculated. The measurements were obtained at the following time points: prior to pregnancy (baseline), at 1-4 days, 4-7 days, 6-9 days, 8-11 days, 11-14 days, 13-16 days, 15-18 days and 18-21 days of pregnancy. At 18-21 days of pregnancy, 24-hr urine was collected in the absence of food (this was done to eliminate contamination of the urinary protein determination by any fallen food particles). Each animal was housed separately in a metabolic cage. The rats were sacrificed at 18-21 days of pregnancy and blood was drawn. The pups were counted and inspected for malformations. The 24-hr protein excretion was measured using the pyrogallol red method (Total protein Kit, Micro Pyrogallol Red Method, Sigma). […]

[4] = NPR rats, RBG 30 micrograms/kg/day i.p., 18-21 days
[5] = PDSR rats, RBG 30 micrograms/kg/day i.p., 18-21 days

C[C@]12CC[C@H](O)C[C@H]1CC[C@@H]1[C@@H]2CC[C@]2(C)[C@@H](c3ccc(=O)oc3)C[C@H]3O[C@]132 [RBG, resibufogenin]
Hypertension and proteinuria [1]: could be corrected | IUGR [1]: trend toward improvement | Prevention of hypertension at lower dose [2]: failed to prevent hypertension | Mean systolic blood pressure (tail-cuff), baseline (normal pregnant rats; NPR rats (n=5), prior to pregnancy (baseline)): 104±5 mmHg | CCR (creatinine clearance) (normal pregnant rats; [4]): 1.20 ± 0.49 mL/min | Hematocrit (normal pregnant rats; [4]): 0.38±0.01 | Protein Excretion (24-hr urine) (normal pregnant rats; [4]): 4.6±0.8 mg/24 hr | Pups (average number of pups) (normal pregnant rats; NPR rats, RBG 30 micrograms/kg/day i.p., sacrifice at 18-21 days): 11.8±1.6 | Mean systolic blood pressure (tail-cuff), final (normal pregnant rats; NPR rats: RBG 30 micrograms/kg/day i.p. from day 4, 18-21 days of pregnancy): 125±6 mmHg | Effect on blood pressure at lower dose (normal pregnant rats; RBG 15 μg/kg/min daily, animal group not clearly stated (data not shown)): did increase blood pressure | Agonist effect on blood pressure (normal pregnant rats; given alone to normal pregnant animals): causes modest hypertension | Mean systolic blood pressure (tail-cuff), baseline ([3]; PDSR rats (n=8), prior to pregnancy (baseline)): 105±5 mmHg | CCR (creatinine clearance) [3, 5]: 1.07 ± 0.29 mL/min | Hematocrit [3, 5]: 0.33±0.02 | Protein Excretion (24-hr urine) [3, 5]: 2.5±1.1 mg/24 hr | Pups (average number of pups) ([3]; PDSR rats, RBG 30 micrograms/kg/day i.p., sacrifice at 18-21 days): 14.6±1.3 | Mean systolic blood pressure (tail-cuff), final ([3]; PDSR rats: DOCA+saline + RBG 30 micrograms/kg/day i.p. from day 4, 18-21 days of pregnancy): 87±6 mmHg | Prevention of hypertension, proteinuria and intrauterine growth restriction (summary) ([3]; early administration in gestation): prevent hypertension, proteinuria and intrauterine growth restriction
